These results are taken from patent US11370769B2, “TRPC5 inhibitors and methods of using same” (BOARD OF REGENTS OF THE UNIVERSITY OF NEBRASKA, priority 2017, dated 2022).

Each structure is given as a SMILES string.

One series has as its system AT1R Tg rats. As to the kind of experiment: AT1R Tg rat model of progressive FSGS. It counts as in vivo. The procedure: Animals and chemicals: Littermates of wild-type (WT) and AT1R TgNeph-hAT1R/185 transgenic (AT1R Tg) rats were housed under a controlled environment with a 12-hour light-dark cycle and access to food and water ad libitum, unless otherwise described. All animal experiments were performed in accordance to the guidelines established and approved by the Animal Care and Use Committee at Brigham and Women's Hospital, Harvard Medical School (Animal Protocol No. 01538). AT1R Tg rats were placed in the Onset cohort when measured proteinuria was >5 mg/day (at approximately 12 weeks of age) on two separate 24-hour urine collections. AT1R Tg rats were placed in the Advanced cohort when measured proteinuria was >25 mg/day (at approximately 18 weeks of age) on two separate 24-hour urine collections. These thresholds were determined after detailed histologic and phenotypic characterization of AT1R Tg rats compared to WT littermates (all combined, n=91 WT rats and n=122 AT1R Tg rats were studied). The Dahl salt-sensitive (S) inbred strain is maintained at University of Mississippi Medical Center (UMMC) and was originally obtained from University of Toledo-College of Medicine (SS/Jr). All animal experiments performed at UMMC were in accordance to the guidelines established and approved by the Institutional Animal Care and Use Committee. Animals used for this studied were provided either low-salt diet [TD7034, 0.3% NaCl and/or high-salt diet [TD94217, 2.0% NaCl] from Harlan Teklad, Madison, Wis. For onset study, at 4 weeks of age, groups of age-matched male S were weaned to the low-salt diet and divided into two groups: vehicle (n=8) and AC1903 groups (n=8). At 6 weeks of age, both groups were placed on the high-salt diet and concurrently treated with either vehicle or AC1903 for 1-week (Onset). For Advanced study, similarly at 4 weeks of age, groups of age-matched male S were weaned to the low-salt diet and divided into two groups: vehicle (n=9) and AC1903 groups (n=11). At 6 weeks of age, both groups were placed on the high-salt diet. At week 7, concurrent with high-salt diet, animals were treated with either vehicle or AC1903 for 1-week (Advanced). At the conclusion of each study, animals were initially anesthetized under 2-3% isoflurane/O2 gas, a catheter attached to a fluid filled pressure transducer was placed in the aorta, isoflurane gas was reduced to 1.5%, and mean arterial pressure was measured for ˜5 min period using PowerLab 4/30 system (ADI Instruments, Co) as done previously. All chemicals were purchased from Sigma-Aldrich unless otherwise described.
Chemical preparation and IP administration: ML204 and AC1903 were prepared from powder in a single batch for each in vivo experiment to avoid variability. Immediately prior to injections, ML204 or AC1903 solution was placed on a heated shaker at 48° C. and 800 RPM. Vehicle was prepared in the same fashion. Injection volume was determined by body weight (2 mL vehicle/compound per kg body weight). Body weight was measured at the time of injection.
Urine collection and assay: For urine collections, rats were housed individually in a metabolic cage supplied with food and water. Urine was collected into a 50 mL falcon tube for 24 hours. Total urine volume was measured and then centrifuged at 3,200 rcf for 10 min at 4° C. Albumin quantification was done according to previously published protocol (11), involving multiple dilutions of urine from each animal compared to Bovine Serum Albumin (BSA) standards. Coumassie Blue stained gels were quantified by densitometry using ImageJ software. As an additional control, the rat ELISA Albumin kit (Exocell) was used for albumin quantification according to the manufacturer's recommendations and yielded the same results. Urine protein was measured using QuanTtest® Red Total Protein Assay System (Quantimetrix, Redondo Beach, Calif.) and expressed as mg protein/24 hours. […]

Another series has as its system caAT1R podocytes. As to the kind of experiment: Cell viability assay in podocytes expressing caAT1R. The format is cell-based, mouse. To be noted: 30 μM ML204, 30 μM AC1903 or 50 μM NSC23677 for 36 hours. The procedure: Podocyte culture and viral transduction: Immortalized mouse podocytes were cultured as previously described (10, 11). Podocyte viral transduction was performed using lentivirus as previously described (10, 11). Briefly, lentivirus production was carried out in HEK293T cells at 60% confluence, and viral particles were collected two days after transfection and purified by centrifugation at 1,000 rcf for 5 min. Purified lentivirus was frozen at −80° C. until further use. Podocytes were transduced with lentivirus after 7 days of differentiation, and assays were performed 5 days after viral transduction.
For experiments in FIG. 4B/C, pCDNA3.1 AT1AR-Δ324 (rat AT1R NM_030985.4) containing HA tag (Plasmid #45635, Addgene) underwent site directed mutagenesis (Agilent) to generate the N111S substitution. For FIG. 4B, differentiated podocytes were transduced with the AT1A-N111S/Δ324 construct in six-well plates. Six days after viral transduction, cells were treated with either vehicle, 30 μM ML204, 30 μM AC1903 or 50 μM NSC23677 for 36 hours. Intracellular production of ROS was measured using a cell-permeable fluorescent dye, 5-(and-6)-chloromethyl-2′,7′-dichlorodihydrofluorescein diacetate, acetyl ester (CM-H2DCFDA, Molecular Probes). Cells were incubated with 5 μM CM-H2DCFDA at 37° C. for 45 min in Hanks' balanced salt solution (HBSS). Cells were then collected, resuspended in HBSS, stained with propidium iodide and the fluorescence intensity was assessed by flow cytometry using MACSQuant Analyzer (Miltenyi Biotec, Bergisch Gladbach, Germany). Living cells, which were PI negative, were selected by FACS gating and the fluorescence of CM-H2DCFDA was recorded on the FL-1 channel (525 nm). For FIG. 4C, differentiated podocytes were transduced with the AT1A-N111S/Δ324 construct in 96 well plates. Six days after transduction, the cells were treated with either vehicle, 30 μM ML204, 30 μM AC1903 or 50 μM NSC23677 for 36 hours. […]

Consider `c1ccc(Cn2c(NCc3ccco3)nc3ccccc32)cc1` [AC1903], for which, in the series with AT1R Tg rats (AC1903-treated AT1R Tg rats), the “numbers of podocytes per glomerulus” value is reported as “approximately 120 podocytes/glom”. In the series with AT1R Tg rats (AC1903 treatment), the BUN entry is “did not affect”, the body weight result is listed as “did not affect” and the creatinine result is “did not affect”. In the series with AT1R Tg rats (Advanced, AC1903 50 mg/kg), the “podocyte numbers compared to vehicle treated controls” value is “preserved numbers of podocytes” and the pseudocyst formation result is “significant reduction in pseudocyst formation”. For the same compound, the proteinuria result with AT1R Tg rats (Advanced, AC1903 50 mg/kg twice daily i.p. for 7 days) was “sufficient to suppress severe proteinuria”. For the same compound, the “podocyte cell death on caAT1R expression” value in the series with caAT1R podocytes is given as “protected from cell death”.

Take `Cc1cc(N2CCCCC2)nc2ccccc12` [ML204, reference compound]: the proteinuria progression result in the series on AT1R Tg rats (Advanced cohort, 25 mg/kg twice daily i.p., at 7 days and 14 days) is given as “suppressed progression of proteinuric disease”. Also, the podocyte pseudocyst formation entry in the series with AT1R Tg rats (Advanced, ML204) is on record as “prevented pseudocyst formation”. In the series on AT1R Tg rats (Advanced, ML204 vs PBS-treated Tg rats), the “podocyte numbers (morphometric analysis)” value was “prevented podocyte loss”. Also, in the series on AT1R Tg rats (ML204 treatment), the BUN result is listed as “did not affect”, the body weight entry is reported as “did not affect” and the creatinine entry was “did not affect”. Moreover, the proteinuria entry in the series with AT1R Tg rats (Onset cohort, ML204 twice daily i.p. for 7 days) is given as “complete suppression of proteinuria down to baseline levels”. Besides, the “podocyte cell death on caAT1R expression” value in the series on caAT1R podocytes is given as “protected from cell death”.
